Test [1] deals with T1, QPCTL (Homo sapiens, UniProt Q9NXS2).
T1 construct: made in house
The experiment in a line: Assay A: biochemical QPCTL activity assay (MALDI-TOF MS, CD47 peptide substrate). The following applies: Table 3, prior art compounds, read-out: Inhibition of QPCTL: IC50. The method, boiled down: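 Enzyme and compound pre-incubated 10 min at 24° C in 20 mM Tris pH 7.5 with TCEP, BSA, Tween20, then 40 min with CD47 peptide (10 μM for QPCTL, 20 μM for QPCT). Pyroglutamate product/internal standard ratio by MALDI-TOF MS, normalized to controls; four-parameter logistic fit.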

Test [2] deals with SIRPα signalling induced by A549 cells. The experiment in a line: Assay B: SIRPα signalling assay using A549 cells. The following applies: Homo sapiens, Table 5, prior art compounds, read-out: Inhibition of SIRPα signalling induced by A549 cells: IC50. Type of test: cell-based. The essentials:
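Raji or A549 cells (5000/well) were each incubated with serially diluted compound for 48 h at 37 °C. Jurkat PathHunter SIRPαV1 reporter cells (15000/well) were then added for 5 h. Beta-galactosidase luminescence gave IC50 via a 4-parameter sigmoidal fit.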

T1 sequence (Q9NXS2 whole entry, species assumed): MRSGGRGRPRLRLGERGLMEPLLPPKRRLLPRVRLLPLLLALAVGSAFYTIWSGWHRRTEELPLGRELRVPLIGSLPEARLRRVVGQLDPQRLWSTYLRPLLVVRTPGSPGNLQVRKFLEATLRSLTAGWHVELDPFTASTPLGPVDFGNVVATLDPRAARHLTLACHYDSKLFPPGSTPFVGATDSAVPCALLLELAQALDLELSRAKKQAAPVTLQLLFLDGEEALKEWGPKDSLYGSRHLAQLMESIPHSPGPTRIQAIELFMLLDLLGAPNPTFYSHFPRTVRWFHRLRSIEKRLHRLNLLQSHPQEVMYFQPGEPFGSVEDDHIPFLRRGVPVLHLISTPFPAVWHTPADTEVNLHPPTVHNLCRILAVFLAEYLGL

Turning to `Cn1cnnc1C1CCN(c2c(-c3ccnnc3)ccc(Cl)c2C#N)CC1` [Compound 33, reference compound], the values for the concentration for half-maximal inhibition (IC50) in test [1] and in test [2] were 1 nM and 56 nM, respectively.

For orientation: IC50 means the concentration that inhibits the measured activity by half.

The values above are taken from patent US20250250251A1, “PIPERIDINYLPYRIDINYLCARBONITRILE DERIVATIVES AS INHIBITORS OF GLUTAMINYL-PEPTIDE CYCLOTRANSFERASE AND GLUTAMINYL-PEPTIDE CYCLOTRANSFERASE LIKE PROTEIN” (Boehringer Ingelheim International GmbH, priority 2024, published 2025).
